Source: paper PMC5853648 (Biochemistry, 2017)
pIC50, pKd: −log10 of the molar value.

Experiments:
CidC [1] = target: T1, CidC (Staphylococcus aureus, UniProt Q6PST7); assay: tryptophan fluorescence quenching titration; assay type: binding
T1 sequence (Q6PST7 2-579): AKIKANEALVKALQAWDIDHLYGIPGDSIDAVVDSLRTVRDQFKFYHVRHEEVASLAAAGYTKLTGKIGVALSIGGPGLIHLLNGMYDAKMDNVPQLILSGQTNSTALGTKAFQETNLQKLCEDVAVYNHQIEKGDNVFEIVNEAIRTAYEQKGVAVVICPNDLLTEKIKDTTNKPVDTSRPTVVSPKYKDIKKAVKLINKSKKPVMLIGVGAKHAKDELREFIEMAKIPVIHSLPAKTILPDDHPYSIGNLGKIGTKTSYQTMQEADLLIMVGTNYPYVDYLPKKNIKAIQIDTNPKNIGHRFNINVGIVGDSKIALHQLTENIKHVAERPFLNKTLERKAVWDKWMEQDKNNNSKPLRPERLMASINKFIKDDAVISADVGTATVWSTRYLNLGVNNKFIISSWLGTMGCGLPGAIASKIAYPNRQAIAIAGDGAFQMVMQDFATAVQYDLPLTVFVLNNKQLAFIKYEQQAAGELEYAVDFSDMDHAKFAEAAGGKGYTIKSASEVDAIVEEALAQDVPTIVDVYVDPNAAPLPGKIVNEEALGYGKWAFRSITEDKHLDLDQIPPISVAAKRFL

CidC [2] = target: T1, CidC; assay: ferricyanide reduction assay, absorbance […] nm; assay type: biochemical

Compound	pKd (CidC [1])	pIC50 (CidC [2])
Cc1ncc(C[n+]2csc(CCO[P@](=O)(O)OP(=O)(O)O)c2C)c(N)n1 [TPP]	6.52	
O=C(O)CC(O)(CC(=O)O)C(=O)O [citrate]		2.00
